{
  "source": "patent US20260373132A1",
  "about": "“PERK INHIBITORHC-5404 IN COMBINATION WITH ANTI-PD-1 ANTIBODY AND/OR AN ANTIANGIOGENETIC AGENT FOR USE IN THE TREATMENT OF CANCER” (HIBERCELL, INC., priority 2022, published 2026)",
  "key": {"[1]": {"test_system": "MB49 syngeneic bladder cancer model", "assay": "MB49 syngeneic bladder cancer tumor growth", "format": "in vivo, mouse", "method": "C57BL/6 mice were subcutaneously inoculated with MB49 cells, and treatment started on day 8 post cell inoculation. A group of animals (n=10/group) received either vehicle, HC-5404 (PO, BID) (3 mg/kg, 10 mg/kg, or 30 mg/kg), 5 mg/kg anti-PD-1 antibody (aPD-1) (RMP1-14) (IP, BIW), or the combination of both. At various timepoints, animals were sacrificed, and flow cytometry was performed on blood or single cell suspensions from tumors or lymph nodes (n=6).\nMB49 (lot #18B016) mouse urothelial carcinoma cell line was purchased from Sigma—The European Collection of Authenticated Cell Cultures (ECACC). Cells were free of human and animal pathogens as tested by h-IMPACT-I and IMPACT-III (IDEXX Bioresearch, Columbia, MO). Additionally, the genetic profile of the cells matched with the ECACC reference standard as tested by STR based DNA fingerprinting assay. Cells were maintained in DMEM with 10% FBS, and cultured up to 4 passages prior to implantation. Cells were harvested at ~80% confluence, washed twice with DMEM without FBS and suspended in DMEM without FBS at 5×10^6 cells/mL for implantation.\n[…] (7-8 week of age) were implanted into the right flank area subcutaneously under Isoflurane anesthesia with 0.5×10^6 MB49 cells/mouse in a total volume of […] on Day 0. Animals were randomized into treatment groups when the average tumor volume reached ~50 mm^3 on Day 5 post inoculation.\nTumor volume was measured twice weekly.\nTumor volume was calculated using the formula [tumor volume (mm^3)=π/6×length×width^2) and plotted as means±SEM. The % T/C (ratio between the tumor volume in the treated group and in the control group) was calculated by the formula 100×ΔT/ΔC, if ΔT>0 of the mean values. ΔT, mean tumor volume of the drug-treated group on the observation day of the study—mean tumor volume of the drug-treated group on initial day of dosing; ΔC, mean tumor volume of the control group on the observation day of the study—mean tumor volume of the control group on initial day of dosing. Regression was calculated using the formula=100×ΔT/Tinitial, if ΔT<0. Animals with <14 mm^3 tumor volume for three consecutive measurements were considered as complete responders and tumors with >50% regressions were partial responders.\nThis example investigated the effect of HC-5404, aPD-1, and HC-5404 in combination with aPD-1 on myeloid cells in tumor microenvironment and T-cell activation following procedures analogous to those described above using MB49 syngeneic model. […] Mice with established syngeneic MB49 tumors were randomized 6 days post tumor inoculation into groups that received either vehicle (0.5% methylcellulose in water, BID, PO), HC-5404 (10 or 30 mg/kg, BID, PO), anti-PD-1 Ab (10 mg/kg, BIW), or both HC-5404 and anti-PD-1."}, "pPERK in A498 tumors": {"test_system": "pPERK in A498 tumors", "assay": "pPERK in A498 tumor xenografts", "format": "in vivo, mouse", "method": "(§1) Samples were put in 500 μL of Novex lysis buffer consisting of 2× Novex Tris-Glycine SDS sample buffer (ThermoFisher LC2676), 1× Phosphatase Inhibitor Cocktail III (Sigma P0044), 1× PhosphataseArrest I (Gbioscience 113P-D), 1×2-mercaptoethanol (Gibco 21985023), 1× Benzonase (EMD Millipore Corp 70746-3), and 1× Protease inhibitor cocktail tablet (Roche/Sigma 11836170001). Samples were homogenized with the Polytron and heated for 10 min at 95 °C. They were then centrifuged at max speed for 10 min and the supernatant was transferred. Protein concentrations of samples were measured using the Pierce 660 nm Protein assay kit (Thermo Scientific 22660) according to the manufacturer's instructions.\nWestern Blot analysis was performed on the SimpleWestern high-throughput protein analysis platform (ProteinSimple 004-650) according to manufacturer's protocol using a 12-230 kDA Separation Module (ProteinSimple SM-W004) and Total Protein Detection Module (ProteinSimple DM-TP01). Antibodies used were: (Add info for other antibodies used) pPERK (Lilly; 1:50) and PERK (Cell Signaling Technology 5683; 1:200). All protein analytes were normalized to total protein loaded on capillary. […]"}, "Caki-1 RCC xenograft": {"test_system": "Caki-1 RCC xenograft", "assay": "Caki-1 RCC xenograft tumor growth", "format": "in vivo, mouse", "method": "Xenograft RCC models were generated as follows: Female NOD.SCID mice (6-8 weeks of age) were injected with A498 RCC cells (5×10^6 cells/mouse), female Balb/c Nude mice (6-8 weeks old) were implanted with 786-O RCC cells (5×10^6 cells/mouse) or Caki-1 RCC cells (6×10^6 cells/mouse), female Athymic Nude-Foxn1nu mice (7-8 weeks of age) were implanted with MFE280 endometrial cells (10×10^6 cells/mouse). Cells were implanted into the flank of animals.\nOnce tumor tumors reached volume of typically 150-250 mm^3, animals were randomized by tumor volume into the treatment groups of 8 or 10 animals per group. In the single animal trial with RCC PDX models, only one animal per group was enrolled.\nBody weight and tumor volume were measured twice weekly. Tumor volume was calculated using the formula [tumor volume (mm^3)=π/6×length×width^2] and plotted as means+SEM. The percentage of tumor growth inhibition was calculated at the end of the study using the formula: […], if ΔT>0, ΔT, mean tumor volume of the drug-treated group on the observation day of the study—mean tumor volume of the drug-treated group on initial day of dosing; ΔC, mean tumor volume of the control group on the observation day of the study—mean tumor volume of the control group on initial day of dosing. Regression was calculated using the formula=100×ΔT/Tinitial, if ΔT<0. Animals with >50% regressions were partial responders. Animals with tumor volume of 0 (no measurable tumor) were considered as complete responders, and animals with <50% tumor regression and 30% growth over the baseline were considered as stable disease. Animals with tumors>30% increase over the baseline were considered progressive disease. The % change in body weight was calculated by the formula (body weight on observation day−body weight on initial day)/body weight on initial day×100%."}, "[2]": {"test_system": "ATF4 targets in gastric PDX (GAO 114-R19P6)", "assay": "ATF4 target proteins in gastric PDX", "format": "in vivo, mouse", "details": "7 days, 1 h post-dose (FIG. 81, 82)", "method": "as §1\nWestern Blot analysis was performed on the SimpleWestern high-throughput protein analysis platform (ProteinSimple 004-650) according to manufacturer's protocol using a 12-230 kDA Separation Module (ProteinSimple SM-W004) and Total Protein Detection Module (ProteinSimple DM-TP01). Antibodies used were: (Add info for other antibodies used) pPERK (Lilly; 1:50) and PERK (Cell Signaling Technology 5683; 1:200). All protein analytes were normalized to total protein loaded on capillary.\nGastric PDX model (GAO 114-R19P6) PD arm sampled after 7 days, 1 h post-dose."}, "[3]": {"assay": "mouse plasma protein binding", "format": "in vitro ADME", "details": "read-out: Mouse plasma protein binding (PPB %) (converted)", "method": "Initial in vivo studies aimed at understanding the pharmacokinetic and pharmacodynamic (PK/PD) relationship and optimizing the dosing regimen were conducted. HC-5404 was quantified from mouse plasma following a single oral administration (PO) at doses ranging from 3 to 100 mg/kg. […] Mouse plasma protein binding (PPB %) was determined to be 95.6%, which enabled us to calculate the free drug plasma exposure across time (FIG. 18)."}},
  "data": [
    {"smiles": "Cc1cc(NC(=O)[C@H](O)c2cc(F)cc(F)c2)ccc1-c1cnc(N)c(C(=O)NC(C)C)c1", "note": "[HC-5404, (R)-2-amino-5-(4-(2-(3,5-difluorophenyl)-2-hydroxyacetamido)-2-methylphenyl)-N-isopropylnicotinamide]", "values": [
      {"measurement": "TGI %", "setting": "[1]; Experiment #1, HC-5404 30 mpk, aPD-1, alone or combined", "value": 52.99, "unit": "%"},
      {"measurement": "TGI %", "setting": "[1]; Experiment #2, HC-5404 30 mpk, aPD-1, alone or combined", "value": 10.64, "unit": "%"},
      {"measurement": "tumor growth inhibition (TGI)", "setting": "[1]; HC-5404 PO BID, aPD-1 5 mg/kg IP BIW, alone or combined", "value": 32, "unit": "%"},
      {"measurement": "TGI %, average", "setting": "[1]; average of two independent studies, HC-5404 30 mpk, aPD-1, alone or combined", "value": 31.82, "unit": "%"},
      {"measurement": "pPERK expression in A498", "setting": "pPERK in A498 tumors; 30 mg/kg PO BID, seven days (FIG. 30)", "value": "strongly inhibited pPERK expression"},
      {"measurement": "pPERK levels in A498", "setting": "pPERK in A498 tumors; DC-101 study, 4 days of treatment (FIG. 37)", "value": "inhibited the pPERK signal"},
      {"measurement": "effect on growth of Caki-1 model", "setting": "Caki-1 RCC xenograft; 10 and 30 mg/kg PO BID tested, 28 days (FIG. 36)", "value": "minimal effect"},
      {"measurement": "sensitivity of Caki-1 to monotherapy", "setting": "Caki-1 RCC xenograft; HC-5404 or sunitinib monotherapy, compared with A498 (FIG. 32)", "value": "far less sensitive"},
      {"measurement": "ATF4 target genes", "setting": "[2]", "value": "induces ATF4 target genes, including ASNS, PSAT1 and other enzymes involved in amino acid metabolism"},
      {"measurement": "fraction unbound", "setting": "[3]", "value": 0.044}
    ]}
  ]
}
